{
  "source": "paper PMC10150366",
  "about": "“Discovery of an In Vivo Chemical Probe for BCL6 Inhibition by Optimization of Tricyclic Quinolinones” (Journal of Medicinal Chemistry, 2023)",
  "key": {"ADRA1A": {"target": "T1, ADRA1A (Homo sapiens, UniProt P35348)", "T1 sequence (P35348 1-466)": "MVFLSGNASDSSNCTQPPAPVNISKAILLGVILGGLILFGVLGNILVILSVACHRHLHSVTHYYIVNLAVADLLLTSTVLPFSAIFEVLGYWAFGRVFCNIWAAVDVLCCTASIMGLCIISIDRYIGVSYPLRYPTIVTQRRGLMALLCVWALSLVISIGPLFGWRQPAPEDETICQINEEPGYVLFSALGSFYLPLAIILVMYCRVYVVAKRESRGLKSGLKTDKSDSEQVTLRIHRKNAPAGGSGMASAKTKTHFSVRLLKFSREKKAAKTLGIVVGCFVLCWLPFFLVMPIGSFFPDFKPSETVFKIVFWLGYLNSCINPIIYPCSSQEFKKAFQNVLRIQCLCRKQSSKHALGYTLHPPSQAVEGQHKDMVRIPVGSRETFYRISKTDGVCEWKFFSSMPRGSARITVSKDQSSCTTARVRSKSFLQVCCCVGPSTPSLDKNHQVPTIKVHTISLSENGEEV", "assay": "SAFETYscan Calcium Flux ADRA1A Agonist", "format": "cell-based", "source_text": "(§1) Supplement jm3c00155_si_002.xlsx, sheet \"SAFETYScan\" | column: RC50 (uM); Max Response"}, "INSR": {"target": "INSR (Homo sapiens, UniProt P06213)", "sequence (P06213 28-1382)": "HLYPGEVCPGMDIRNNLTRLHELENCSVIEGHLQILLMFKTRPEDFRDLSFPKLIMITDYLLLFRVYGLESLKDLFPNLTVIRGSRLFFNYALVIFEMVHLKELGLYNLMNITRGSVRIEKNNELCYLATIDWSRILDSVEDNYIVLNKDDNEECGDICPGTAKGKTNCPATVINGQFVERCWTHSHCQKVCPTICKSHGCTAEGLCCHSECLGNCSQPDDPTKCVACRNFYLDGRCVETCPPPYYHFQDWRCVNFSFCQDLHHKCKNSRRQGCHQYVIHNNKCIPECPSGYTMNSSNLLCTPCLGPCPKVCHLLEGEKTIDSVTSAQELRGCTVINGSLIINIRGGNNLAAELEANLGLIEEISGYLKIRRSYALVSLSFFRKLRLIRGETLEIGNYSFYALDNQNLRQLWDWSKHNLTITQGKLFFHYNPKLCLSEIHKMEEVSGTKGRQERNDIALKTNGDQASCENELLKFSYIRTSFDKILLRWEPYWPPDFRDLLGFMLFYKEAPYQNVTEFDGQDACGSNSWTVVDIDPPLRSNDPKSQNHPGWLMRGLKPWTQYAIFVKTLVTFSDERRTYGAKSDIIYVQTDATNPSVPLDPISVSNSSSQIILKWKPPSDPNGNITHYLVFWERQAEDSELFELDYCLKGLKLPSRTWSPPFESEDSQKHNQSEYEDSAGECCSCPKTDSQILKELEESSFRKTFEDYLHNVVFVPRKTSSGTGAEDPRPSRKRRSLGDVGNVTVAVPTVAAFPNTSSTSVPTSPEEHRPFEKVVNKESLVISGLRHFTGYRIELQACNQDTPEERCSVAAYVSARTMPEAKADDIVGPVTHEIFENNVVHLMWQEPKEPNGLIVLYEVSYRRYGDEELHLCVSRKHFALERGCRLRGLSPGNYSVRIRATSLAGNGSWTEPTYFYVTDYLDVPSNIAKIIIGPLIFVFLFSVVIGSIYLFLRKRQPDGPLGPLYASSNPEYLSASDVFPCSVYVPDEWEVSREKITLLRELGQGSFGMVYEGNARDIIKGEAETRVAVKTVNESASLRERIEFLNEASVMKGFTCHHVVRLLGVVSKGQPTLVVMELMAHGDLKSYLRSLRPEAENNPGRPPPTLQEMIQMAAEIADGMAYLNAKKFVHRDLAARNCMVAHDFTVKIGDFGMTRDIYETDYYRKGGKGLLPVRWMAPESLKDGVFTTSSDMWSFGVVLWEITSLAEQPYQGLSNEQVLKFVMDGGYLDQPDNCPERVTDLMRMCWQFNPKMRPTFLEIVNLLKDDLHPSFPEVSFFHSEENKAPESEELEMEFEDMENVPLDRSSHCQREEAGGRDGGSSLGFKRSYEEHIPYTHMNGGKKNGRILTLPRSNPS", "assay": "SAFETYscan Kinases Binding INSR Inhibitor", "source_text": "as §1"}, "LCK": {"target": "LCK (Homo sapiens, UniProt P06239)", "sequence (P06239 whole entry)": "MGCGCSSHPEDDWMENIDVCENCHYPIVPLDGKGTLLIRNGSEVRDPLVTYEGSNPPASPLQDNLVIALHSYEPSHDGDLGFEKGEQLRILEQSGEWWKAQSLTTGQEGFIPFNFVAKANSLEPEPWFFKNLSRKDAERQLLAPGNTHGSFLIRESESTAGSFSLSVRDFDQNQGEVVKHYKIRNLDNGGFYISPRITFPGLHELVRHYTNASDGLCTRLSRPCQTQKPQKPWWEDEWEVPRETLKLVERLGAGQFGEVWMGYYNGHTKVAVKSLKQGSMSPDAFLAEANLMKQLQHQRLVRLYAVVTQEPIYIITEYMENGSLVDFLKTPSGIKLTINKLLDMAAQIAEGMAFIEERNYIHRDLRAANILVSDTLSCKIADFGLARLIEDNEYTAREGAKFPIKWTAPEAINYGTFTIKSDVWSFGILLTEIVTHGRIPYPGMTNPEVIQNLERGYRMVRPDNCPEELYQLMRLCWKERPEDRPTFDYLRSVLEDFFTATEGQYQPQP", "assay": "SAFETYscan Kinases Binding LCK Inhibitor", "source_text": "as §1"}, "CCKAR": {"target": "T2, CCKAR (Homo sapiens, UniProt P32238)", "T2 sequence (P32238 1-428)": "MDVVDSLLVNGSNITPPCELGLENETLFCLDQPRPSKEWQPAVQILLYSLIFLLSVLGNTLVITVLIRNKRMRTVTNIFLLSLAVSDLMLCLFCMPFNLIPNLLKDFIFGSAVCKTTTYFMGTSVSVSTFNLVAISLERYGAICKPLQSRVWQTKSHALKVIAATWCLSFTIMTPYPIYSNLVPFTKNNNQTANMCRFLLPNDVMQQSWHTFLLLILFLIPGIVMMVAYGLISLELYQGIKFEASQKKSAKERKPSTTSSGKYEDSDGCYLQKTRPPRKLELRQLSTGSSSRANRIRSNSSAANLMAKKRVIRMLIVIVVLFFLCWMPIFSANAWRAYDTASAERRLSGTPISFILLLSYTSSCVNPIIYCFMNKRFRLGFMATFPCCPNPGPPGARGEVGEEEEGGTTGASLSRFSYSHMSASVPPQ", "assay": "SAFETYscan Calcium Flux CCKAR Antagonist", "format": "cell-based", "source_text": "as §1"}, "ADRB2": {"target": "ADRB2 (Homo sapiens, UniProt P07550)", "sequence (P07550 whole entry)": "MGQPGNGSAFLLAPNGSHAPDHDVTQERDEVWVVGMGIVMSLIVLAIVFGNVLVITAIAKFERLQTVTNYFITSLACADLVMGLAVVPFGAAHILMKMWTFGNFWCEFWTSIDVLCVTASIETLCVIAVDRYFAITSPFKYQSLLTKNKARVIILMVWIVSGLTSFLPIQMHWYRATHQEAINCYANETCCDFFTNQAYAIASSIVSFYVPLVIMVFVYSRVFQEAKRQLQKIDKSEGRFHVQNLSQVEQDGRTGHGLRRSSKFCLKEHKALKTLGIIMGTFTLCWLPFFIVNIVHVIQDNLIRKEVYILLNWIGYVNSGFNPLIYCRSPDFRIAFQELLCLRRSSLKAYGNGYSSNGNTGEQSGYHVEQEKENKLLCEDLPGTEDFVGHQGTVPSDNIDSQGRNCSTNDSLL", "assay": "SAFETYscan cAMP ADRB2 Agonist", "format": "cell-based", "source_text": "as §1"}, "NMDAR (1A/2B)": {"target": "NMDAR (1A/2B) (Homo sapiens, UniProt Q05586+Q13224)", "sequence (Q13224 27-1484, other chains not shown)": "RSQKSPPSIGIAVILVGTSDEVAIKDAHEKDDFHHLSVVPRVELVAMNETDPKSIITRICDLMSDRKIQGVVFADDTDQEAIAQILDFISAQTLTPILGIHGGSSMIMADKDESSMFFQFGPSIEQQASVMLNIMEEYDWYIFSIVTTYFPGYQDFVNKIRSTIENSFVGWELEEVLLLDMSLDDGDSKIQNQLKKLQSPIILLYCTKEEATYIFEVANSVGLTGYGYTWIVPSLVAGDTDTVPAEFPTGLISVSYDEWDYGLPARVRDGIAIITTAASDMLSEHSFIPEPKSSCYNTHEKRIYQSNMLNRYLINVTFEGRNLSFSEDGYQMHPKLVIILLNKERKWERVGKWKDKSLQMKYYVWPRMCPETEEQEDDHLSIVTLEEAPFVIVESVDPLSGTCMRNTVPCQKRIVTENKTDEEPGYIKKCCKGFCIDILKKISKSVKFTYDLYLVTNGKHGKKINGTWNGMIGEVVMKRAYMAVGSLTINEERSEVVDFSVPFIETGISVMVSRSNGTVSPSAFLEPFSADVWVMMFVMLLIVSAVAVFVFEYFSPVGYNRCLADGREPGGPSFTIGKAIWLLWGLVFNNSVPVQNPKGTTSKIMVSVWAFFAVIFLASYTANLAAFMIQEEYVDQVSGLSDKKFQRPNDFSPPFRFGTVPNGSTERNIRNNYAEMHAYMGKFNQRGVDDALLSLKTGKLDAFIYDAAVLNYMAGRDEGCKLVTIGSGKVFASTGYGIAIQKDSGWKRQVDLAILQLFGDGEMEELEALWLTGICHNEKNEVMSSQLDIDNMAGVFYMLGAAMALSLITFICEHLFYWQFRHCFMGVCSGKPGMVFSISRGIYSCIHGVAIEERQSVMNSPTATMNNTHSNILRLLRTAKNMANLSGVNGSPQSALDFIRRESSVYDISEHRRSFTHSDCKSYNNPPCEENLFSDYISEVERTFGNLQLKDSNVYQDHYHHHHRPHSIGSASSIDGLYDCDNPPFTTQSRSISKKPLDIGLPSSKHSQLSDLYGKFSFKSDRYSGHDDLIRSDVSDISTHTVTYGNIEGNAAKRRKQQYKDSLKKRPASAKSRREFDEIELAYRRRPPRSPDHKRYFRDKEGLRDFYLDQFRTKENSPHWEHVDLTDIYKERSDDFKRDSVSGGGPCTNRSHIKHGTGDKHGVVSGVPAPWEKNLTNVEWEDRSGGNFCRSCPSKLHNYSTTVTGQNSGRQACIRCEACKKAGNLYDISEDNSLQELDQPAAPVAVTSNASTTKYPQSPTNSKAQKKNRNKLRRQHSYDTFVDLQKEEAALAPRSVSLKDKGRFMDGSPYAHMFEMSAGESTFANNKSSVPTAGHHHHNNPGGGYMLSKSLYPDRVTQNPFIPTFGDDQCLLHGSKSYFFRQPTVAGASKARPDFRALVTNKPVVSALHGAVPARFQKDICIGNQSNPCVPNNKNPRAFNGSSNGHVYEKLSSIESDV", "assay": "SAFETYscan Ion Channel NMDAR (1A/2B) Blocker", "format": "cell-based", "source_text": "as §1"}, "PDE3A": {"target": "PDE3A (Homo sapiens, UniProt Q14432)", "assay": "SAFETYscan Enzymatic PDE3A Inhibitor", "format": "biochemical", "source_text": "as §1"}, "kinase panel (468)": {"target": "kinase panel (468)", "assay": "KINOMEscan scanMAX kinase panel (468)", "format": "binding", "conditions": "for Percent Control: 10000 nM"}, "NET": {"target": "NET (Homo sapiens, UniProt P23975)", "sequence (P23975 whole entry)": "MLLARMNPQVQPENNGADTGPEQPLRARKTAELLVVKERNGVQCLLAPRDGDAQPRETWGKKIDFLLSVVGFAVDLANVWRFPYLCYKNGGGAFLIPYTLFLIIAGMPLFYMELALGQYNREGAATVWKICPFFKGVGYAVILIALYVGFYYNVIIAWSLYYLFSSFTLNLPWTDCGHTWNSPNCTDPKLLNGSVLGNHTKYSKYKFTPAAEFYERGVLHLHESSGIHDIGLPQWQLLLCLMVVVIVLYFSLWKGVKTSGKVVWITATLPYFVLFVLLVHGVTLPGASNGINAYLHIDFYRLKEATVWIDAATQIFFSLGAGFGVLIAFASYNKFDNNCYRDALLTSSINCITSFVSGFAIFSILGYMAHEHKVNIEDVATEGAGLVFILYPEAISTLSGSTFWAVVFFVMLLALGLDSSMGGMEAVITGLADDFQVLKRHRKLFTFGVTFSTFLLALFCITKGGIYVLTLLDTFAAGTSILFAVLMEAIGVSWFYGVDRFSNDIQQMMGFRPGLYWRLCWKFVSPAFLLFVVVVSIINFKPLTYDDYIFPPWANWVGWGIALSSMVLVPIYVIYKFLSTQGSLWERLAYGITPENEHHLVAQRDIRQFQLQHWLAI", "assay": "SAFETYscan Transporter NET Blocker", "format": "cell-based", "source_text": "as §1"}, "CHRM2": {"target": "T3, CHRM2 (Homo sapiens, UniProt P08172)", "T3 sequence (P08172 1-466)": "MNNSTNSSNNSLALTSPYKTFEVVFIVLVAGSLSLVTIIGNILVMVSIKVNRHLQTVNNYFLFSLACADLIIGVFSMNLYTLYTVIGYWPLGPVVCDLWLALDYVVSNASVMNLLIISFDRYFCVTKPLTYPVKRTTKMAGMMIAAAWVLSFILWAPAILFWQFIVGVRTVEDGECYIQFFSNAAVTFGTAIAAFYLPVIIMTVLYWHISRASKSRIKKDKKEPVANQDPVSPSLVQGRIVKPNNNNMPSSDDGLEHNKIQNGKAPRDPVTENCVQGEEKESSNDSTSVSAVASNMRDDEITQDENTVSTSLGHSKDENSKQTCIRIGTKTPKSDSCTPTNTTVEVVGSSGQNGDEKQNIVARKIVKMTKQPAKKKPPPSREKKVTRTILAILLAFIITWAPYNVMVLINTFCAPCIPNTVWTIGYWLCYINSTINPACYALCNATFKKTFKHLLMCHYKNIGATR", "assay": "SAFETYscan cAMP CHRM2 Agonist", "format": "cell-based", "source_text": "Supplement jm3c00155_si_002.xlsx, sheet \"SAFETYScan\" | column: RC50 (uM); Hill; Max Response"}, "AVPR1A": {"target": "AVPR1A (Homo sapiens, UniProt P37288)", "sequence (P37288 whole entry)": "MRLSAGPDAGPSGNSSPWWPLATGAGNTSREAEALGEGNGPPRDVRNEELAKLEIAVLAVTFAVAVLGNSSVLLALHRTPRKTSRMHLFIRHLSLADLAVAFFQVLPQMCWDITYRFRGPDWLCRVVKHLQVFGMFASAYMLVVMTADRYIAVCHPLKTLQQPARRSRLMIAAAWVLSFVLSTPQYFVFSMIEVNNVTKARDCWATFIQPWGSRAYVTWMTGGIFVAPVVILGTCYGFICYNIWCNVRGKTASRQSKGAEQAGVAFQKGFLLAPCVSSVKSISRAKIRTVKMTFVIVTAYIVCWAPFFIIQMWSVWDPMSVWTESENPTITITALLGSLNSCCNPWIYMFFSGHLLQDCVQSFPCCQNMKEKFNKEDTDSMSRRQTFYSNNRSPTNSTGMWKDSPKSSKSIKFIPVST", "assay": "SAFETYscan Calcium Flux AVPR1A Agonist", "format": "cell-based", "source_text": "as §1"}},
  "data": [
    {"compound": "Cn1c(=O)c2c(c3cc(Nc4ccnc(F)c4Cl)ccc31)N[C@@H](C1CC1)C(F)(F)CO2", "note": "[compound 17, (S)-10-((3-chloro-2-fluoropyridin-4-yl)amino)-2-cyclopropyl-3,3-difluoro-7-methyl-1,2,3,4-tetrahydro-[1,4]oxazepino[2,3-c]quinolin-6(7H)-one]", "values": [
      {"measurement": "EC50", "setting": "ADRA1A", "result": "> 10", "unit": "µM"},
      {"measurement": "Emax", "setting": "ADRA1A; ADRA1A, Calcium Flux, Agonist, read-out: Max Response", "result": 0, "unit": "%"},
      {"measurement": "Emax", "setting": "INSR; read-out: Max Response", "result": 0, "unit": "%"},
      {"measurement": "IC50", "setting": "INSR; read-out: RC50 (IC50)", "result": "> 10", "unit": "µM"},
      {"measurement": "Emax", "setting": "LCK; read-out: Max Response", "result": 0.08, "unit": "%"},
      {"measurement": "IC50", "setting": "LCK; read-out: RC50 (IC50)", "result": "> 10", "unit": "µM"},
      {"measurement": "Emax", "setting": "CCKAR; read-out: Max Response", "result": 0, "unit": "%"},
      {"measurement": "IC50", "setting": "CCKAR; read-out: RC50 (IC50)", "result": "> 10", "unit": "µM"},
      {"measurement": "Emax", "setting": "ADRB2; read-out: Max Response", "result": 0, "unit": "%"},
      {"measurement": "EC50", "setting": "ADRB2; read-out: RC50 (EC50)", "result": "> 10", "unit": "µM"},
      {"measurement": "IC50", "setting": "NMDAR (1A/2B)", "result": "> 10", "unit": "µM"},
      {"measurement": "Emax", "setting": "NMDAR (1A/2B); NMDAR (1A/2B), Ion Channel, Blocker, read-out: Max Response", "result": 0, "unit": "%"},
      {"measurement": "Emax", "setting": "PDE3A; read-out: Max Response", "result": 2.67, "unit": "%"},
      {"measurement": "IC50", "setting": "PDE3A; read-out: RC50 (IC50)", "result": "> 10", "unit": "µM"},
      {"measurement": "kinase panel (468) outcome", "setting": "kinase panel (468)", "result": "selective activity and minimal off-target interactions"},
      {"measurement": "Percent Control", "setting": "kinase panel (468); EGFR(L747-E749del, A750P)", "result": 93, "unit": "%"},
      {"measurement": "Percent Control", "setting": "kinase panel (468); EGFR(L747-S752del, P753S)", "result": 67, "unit": "%"},
      {"measurement": "Percent Control", "setting": "kinase panel (468); EGFR(L747-T751del,Sins)", "result": 100, "unit": "%"},
      {"measurement": "Percent Control", "setting": "kinase panel (468); FLT3(ITD)", "result": 98, "unit": "%"},
      {"measurement": "Percent Control", "setting": "kinase panel (468); FLT3(ITD,D835V)", "result": 100, "unit": "%"},
      {"measurement": "Percent Control", "setting": "kinase panel (468); FLT3(ITD,F691L)", "result": 100, "unit": "%"},
      {"measurement": "IC50", "setting": "NET", "result": "> 10", "unit": "µM"},
      {"measurement": "Emax", "setting": "NET; NET, Transporter, Blocker, read-out: Max Response", "result": 0, "unit": "%"},
      {"measurement": "EC50", "setting": "CHRM2", "result": 2.22, "unit": "µM"},
      {"measurement": "Hill", "setting": "CHRM2; CHRM2, cAMP, Agonist", "result": 1.63},
      {"measurement": "Emax", "setting": "CHRM2; CHRM2, cAMP, Agonist, read-out: Max Response", "result": 92.6, "unit": "%"},
      {"measurement": "Emax", "setting": "AVPR1A; read-out: Max Response", "result": 0, "unit": "%"},
      {"measurement": "EC50", "setting": "AVPR1A; read-out: RC50 (EC50)", "result": "> 10", "unit": "µM"}
    ]}
  ]
}
